Laboratory results: US20140051756A1, “METHOD FOR PREVENTING OR TREATING ARRHYTHMIA, METHOD FOR PREVENTING OR TREATING ATRIAL FIBRILLATION, MODEL OF SUSTAINED ATRIAL FIBRILLATION, METHOD FOR PRODUCING THE MODEL, AND METHOD FOR SCREENING FOR ATRIAL FIBRILLATION INHIBITOR” (Toho University, priority 2011, published 2014)
Read-outs that look alike come from different tables or passages of the source.

Key:
[1] = test system: model of sustained atrial fibrillation; assay: Test Example 1: screening for atrial fibrillation inhibitor, intravenous injection, Holter electrocardiogram; conditions: for Frequency of Atrial Fibrillation Termination: X/Y individuals terminated
[2] = test system: normal beagle dogs; conditions: dog, in vivo, iv
[3] = test system: model of sustained atrial fibrillation; assay: Test Example 2: study of dose and combined use of oseltamivir, with 24 hour follow-up for recurrence; type: in vivo, beagle dog; conditions: for Frequency of Atrial Fibrillation Recurrence: 24 hours follow-up after termination
Description: Oseltamivir (oseltamivir phosphate, trade name: TAMIFLU (registered trademark), product of CHUGAI PHARMACEUTICAL CO., LTD.; phosphate of the compound represented by Structural Formula (I))) and/or pilsicainide (pilsicainide hydrochloride, trade name: […] (registered trademark), product of DAIICHI SANKYO COMPANY, LIMITED), which had been diluted with saline to doses as described in Table 2-1, was intravenously injected to the model of sustained atrial fibrillation produced in Production Example 1 in doses described in Table 2-1 for 10 min.
During from before the administration to after the administration, the electrocardiogram was monitored in the same manner as in Test Example 1, and the frequency of atrial fibrillation termination and the defibrillation rate were determined in the same manner as in Test Example 1. For individuals in which atrial fibrillation was terminated, an electrocardiographic follow-up was performed for 24 hours after atrial fibrillation was terminated to thereby determine whether atrial fibrillation recurred.

[4] = test system: normal beagle dogs; assay: Test Example 3: study of effect on QT prolongation (ECG, MAP90, ERP)
[5] = 3 mg/kg intravenous over 10 min
[6] = high dose 30 mg/kg intravenous over 10 min
[7] = low dose 3 mg/kg intravenous over 10 min
[8] = 30 mg/kg intravenous over 10 min

SMILES: CCN(CC)CCCN(c1ccccc1)C1Cc2ccccc2C1 [Aprindine, aprindine]
- Defibrillation Rate [1, 5]: 0%
- Frequency of Atrial Fibrillation Termination [1, 5]: 0/6

SMILES: c1ccc(C2(c3ccccc3)CC2C2=NCCN2)cc1 (centres unmarked) [Cibenzoline, cibenzoline]
- Defibrillation Rate [1, 5]: 33.3%
- Frequency of Atrial Fibrillation Termination [1, 5]: 2/6

SMILES: CC(C)N(CCC(C(N)=O)(c1ccccc1)c1ccccn1)C(C)C (centres unmarked) [Disopyramide, disopyramide]
- MAP90 (CL300) versus MAP90 (CL400), MAP prolongation pattern [2]: dangerous MAP prolongation pattern
- prolongation of QT and QTc, QT prolongation pattern [2]: longer prolongations of QT and QTc than that of the oseltamivir-administered group, and a dangerous QT prolongation pattern
- Frequency of Atrial Fibrillation Termination [1, 5]: 1/6
- death of the model animal after administration ([1]; 3 mg/kg intravenous, 1 individual, FIG. 6A): confirmed to be dead
- termination of atrial fibrillation on electrocardiogram ([1]; 3 mg/kg intravenous, 1 individual, FIGS. 6A to 6C): could not terminate atrial fibrillation

SMILES: CCOC(=O)C1=C[C@@H](OC(CC)CC)[C@H](NC(C)=O)[C@@H](N)C1 [Oseltamivir, oseltamivir]
- Defibrillation Rate [3, 6]: 100%
- Frequency of Atrial Fibrillation Termination [3, 6]: 5/5
- Frequency of Atrial Fibrillation Recurrence [3, 6]: 2/5
- Defibrillation Rate [3, 7]: 25%
- Frequency of Atrial Fibrillation Termination [3, 7]: 1/4
- Frequency of Atrial Fibrillation Recurrence [3, 7]: 0/1
- prolongation of QT and QTc, QT prolongation pattern ([4]; anesthetized normal dogs, intravenous doses increased stepwise every 30 min (Table 3), FIGS. 7 to 10): short prolongations of QT and QTc and a safe QT prolongation pattern
- prolongation of P wave width on the electrocardiogram (index of inhibitory effect on Na channels in the atrial muscle) ([4]; sinus rhythm, 0.3, 3, 30 mg/kg intravenous stepwise, FIG. 7): longer prolongation of P wave
- MAP90 (CL300) versus MAP90 (CL400), MAP prolongation pattern ([4]; ventricular pacing at cycle length 300 msec (200 bpm) and 400 msec (150 bpm), stepwise intravenous doses (Table 3)): safe MAP prolongation pattern
- Defibrillation Rate [1, 8]: 91.7%
- adverse effect on the ventricle [1, 8]: does not adversely affect the ventricle
- Frequency of Atrial Fibrillation Termination [1, 8]: 11/12
- Defibrillation Rate ([1]; 30 mg/kg intravenous over 10 min, listed as oseltamivir): very high

SMILES: Cc1cccc(C)c1NC(=O)CC12CCCN1CCC2 [Pilsicainide, pilsicainide]
- MAP90 (CL300) versus MAP90 (CL400), MAP prolongation pattern [2]: dangerous MAP prolongation pattern
- prolongation of QT and QTc, QT prolongation pattern [2]: longer prolongations of QT and QTc than that of the oseltamivir-administered group, and a dangerous QT prolongation pattern
- Defibrillation Rate [1, 5]: 33.3%
- Frequency of Atrial Fibrillation Termination [1, 5]: 2/6
